Legend:
Type in all cases: ADME, organism-based
[1] = AUC (0 to infinity) in C57BL/6J mouse at 20 mg/kg, po via gavage by LC-MS/MS analysis; design: dose 20 mg/kg, route oral, time infinity; conditions: in vivo
[2] = Half life in C57BL/6J mouse at 20 mg/kg, po via gavage by LC-MS/MS analysis; conditions: in vivo
[3] = Plasma concentration in C57BL/6J mouse at 50 mg/kg, po after 45 mins by LC-MS/MS analysis
[4] = Tmax in C57BL/6J mouse at 20 mg/kg, po via gavage by LC-MS/MS analysis; conditions: in vivo
[5] = AUC (0 to infinity) in C57BL/6J mouse at 5 mg/kg, iv by LC-MS/MS analysis; design: dose 5 mg/kg, time infinity, route intravenous; conditions: in vivo
[6] = AUClast in C57BL/6J mouse at 5 mg/kg, iv by LC-MS/MS analysis; design: dose 5 mg/kg, route intravenous, time 0 - last; conditions: in vivo
[7] = Volume of distribution at steady state in C57BL/6J mouse at 5 mg/kg, iv by LC-MS/MS analysis; conditions: in vivo, read-out: Vdss
[8] = Plasma concentration in fasted C57BL/6J mouse at 50 mg/kg, po after 45 mins
[9] = Cmax in C57BL/6J mouse at 20 mg/kg, po via gavage by LC-MS/MS analysis; design: dose 20 mg/kg, route oral; conditions: in vivo
[10] = Half life in C57BL/6J mouse at 5 mg/kg, iv by LC-MS/MS analysis; conditions: in vivo
[11] = MRT in C57BL/6J mouse at 5 mg/kg, iv by LC-MS/MS analysis; conditions: in vivo
[12] = AUClast in C57BL/6J mouse at 20 mg/kg, po via gavage by LC-MS/MS analysis; design: dose 20 mg/kg, time 0 - last, route oral; conditions: in vivo
[13] = Apparent volume of distribution in C57BL/6J mouse at 5 mg/kg, iv by LC-MS/MS analysis; conditions: in vivo, read-out: Vz
[14] = MRT in C57BL/6J mouse at 20 mg/kg, po via gavage by LC-MS/MS analysis; conditions: in vivo
[15] = Oral bioavailability in C57BL/6J mouse at 20 mg/kg via gavage by LC-MS/MS analysis; conditions: in vivo
[16] = Clearance in C57BL/6J mouse at 5 mg/kg, iv by LC-MS/MS analysis; conditions: in vivo
[17] = Plasma concentration in CD-1 mouse at 50 mg/kg, po after 1.25 hrs
[18] = Plasma concentration in fasted C57BL/6J mouse at 30 mg/kg, sc after 45 mins

COc1ccc(SCc2cnc(SCc3c(F)cc(-c4nn[nH]n4)cc3F)n2-c2ccc(F)cc2)cc1OC
AUC(0-inf) [1]: 148 ng·h/mL | half-life [2]: 164 min | concentration at 0.75 h [3]: 1180 nM | Tmax [4]: 30 min | AUC(0-inf) [5]: 390 ng·h/mL | AUC(0-t) [6]: 379 ng·h/mL | Vd [7]: 4.44 L/kg | concentration at 0.75 h [8]: 1030 nM | Cmax [9]: 68.1 ng/mL | half-life [10]: 26.7 min | MRT [11]: 17 min | AUC(0-t) [12]: 98.4 ng·h/mL | Vd [13]: 8.24 L/kg | MRT [14]: 82.2 min | bioavailability [15]: 6.48% | clearance [16]: 214 mL/min/kg | concentration at 1.25 h [17]: 20 nM | concentration at 0.75 h [18]: 15800 nM

Source: ChEMBL document CHEMBL4007482, “Evaluation of anti-diabetic effect and gall bladder function with 2-thio-5-thiomethyl substituted imidazoles as TGR5 receptor agonists” (Bioorg Med Chem Lett, 2017)
